How the values were obtained:
[1] = tested on: weed plants such as Sinapis alba, Chrysanthemum segetum, Avena sativa, Stellaria media, Echinochloa crus-galli, Lolium multiflorum, Setaria viridis, Abutilon …; experiment: Pre-emergence effect on weeds (greenhouse pot test, visual scoring); format: in vivo; conditions: applied pre-emergence at a rate of 0.3 kg or less of active substance per hectare; scored after 3 to 4 weeks in comparison to untreated controls
[2] = tested on: weed plants such as Sinapis alba, Echinochloa crus-galli, Lolium multiflorum, Chrysanthemum segetum, Setaria viridis, Abutilon theophrasti, Amaranthus …; experiment: Post-emergence effect on weeds (greenhouse pot test, visual scoring); format: in vivo; conditions: applied post-emergence (three-leaf stage) at a rate of 0.3 kg or less of active substance per hectare; scored after about 3 to 4 weeks in comparison to untreated controls

Compound	herbicidal action against weed plants (visual scoring of plant damage or emergence damage) [1]	herbicidal action against weed plants (effect scored visually) [2]
CCCOc1cccc(I)c1S(=O)(=O)NC(=O)n1nc(SCC)n(C)c1=O [Compound 1.237]	very good herbidical action	very good herbicidal action
CCCOc1cccc(I)c1S(=O)(=O)NC(=O)n1nc(OC)n(C2CC2)c1=O [Compound 1.238]	very good herbidical action	very good herbicidal action
CCCOc1cccc(I)c1S(=O)(=O)NC(=O)n1nc(OCC)n(C2CC2)c1=O [Compound 1.241]	very good herbidical action	very good herbicidal action
CCCOc1cccc(I)c1S(=O)(=O)NC(=O)n1nc(OCCC)n(C2CC2)c1=O [Compound 1.244]	very good herbidical action	very good herbicidal action
COc1nn(C(=O)NS(=O)(=O)c2c(I)cccc2OC(C)C)c(=O)n1C [Compound 1.251]	very good herbidical action	very good herbicidal action
CCOc1nn(C(=O)NS(=O)(=O)c2c(I)cccc2OC(C)C)c(=O)n1C [Compound 1.254]	very good herbidical action	very good herbicidal action
CCCOc1nn(C(=O)NS(=O)(=O)c2c(I)cccc2OC(C)C)c(=O)n1C [Compound 1.255]	very good herbidical action	very good herbicidal action
CC(C)Oc1cccc(I)c1S(=O)(=O)NC(=O)n1nc(OC(C)C)n(C)c1=O [Compound 1.256]	very good herbidical action	very good herbicidal action
COc1nn(C(=O)NS(=O)(=O)c2c(I)cccc2OC(C)C)c(=O)n1C1CC1 [Compound 1.258]	very good herbidical action	very good herbicidal action
CCOc1nn(C(=O)NS(=O)(=O)c2c(I)cccc2OC(C)C)c(=O)n1C1CC1 [Compound 1.261]	very good herbidical action	very good herbicidal action
CCCOc1nn(C(=O)NS(=O)(=O)c2c(I)cccc2OC(C)C)c(=O)n1C1CC1 [Compound 1.264]	very good herbidical action	very good herbicidal action
CCCCOc1cccc(I)c1S(=O)(=O)NC(=O)n1nc(OC)n(C)c1=O [Compound 1.273]	very good herbidical action	very good herbicidal action
CCCCOc1cccc(I)c1S(=O)(=O)NC(=O)n1nc(OCC)n(C)c1=O [Compound 1.274]	very good herbidical action	very good herbicidal action
CCCCOc1cccc(I)c1S(=O)(=O)NC(=O)n1nc(OCCC)n(C)c1=O [Compound 1.275]	very good herbidical action	very good herbicidal action
CCCCOc1cccc(I)c1S(=O)(=O)NC(=O)n1nc(OC(C)C)n(C)c1=O [Compound 1.276]	very good herbidical action	very good herbicidal action
CCCCOc1cccc(I)c1S(=O)(=O)NC(=O)n1nc(OC)n(C2CC2)c1=O [Compound 1.278]	very good herbidical action	very good herbicidal action
CCCCOc1cccc(I)c1S(=O)(=O)NC(=O)n1nc(OCC)n(C2CC2)c1=O [Compound 1.279]	very good herbidical action	very good herbicidal action
CCCCOc1cccc(I)c1S(=O)(=O)NC(=O)n1nc(OCCC)n(C2CC2)c1=O [Compound 1.280]	very good herbidical action	very good herbicidal action
CCC(C)Oc1cccc(I)c1S(=O)(=O)NC(=O)n1nc(OC)n(C)c1=O (stereo not shown) [Compound 1.281]	very good herbidical action	very good herbicidal action

Compound	herbicidal action against weed plants (visual scoring of plant damage or emergence damage) [1]	herbicidal action against weed plants (effect scored visually) [2]
CCC(C)Oc1cccc(I)c1S(=O)(=O)NC(=O)n1nc(OC)n(C2CC2)c1=O (stereo not shown) [Compound 1.286]	very good herbidical action	very good herbicidal action
COc1nn(C(=O)NS(=O)(=O)c2c(I)cccc2OCC(C)C)c(=O)n1C [Compound 1.289]	very good herbidical action	very good herbicidal action
CCOc1nn(C(=O)NS(=O)(=O)c2c(I)cccc2OCC(C)C)c(=O)n1C [Compound 1.290]	very good herbidical action	very good herbicidal action
COc1nn(C(=O)NS(=O)(=O)c2c(I)cccc2OCC(C)C)c(=O)n1C1CC1 [Compound 1.294]	very good herbidical action	very good herbicidal action
CCOc1nn(C(=O)NS(=O)(=O)c2c(I)cccc2OCC(C)C)c(=O)n1C1CC1 [Compound 1.295]	very good herbidical action	very good herbicidal action
COc1nn(C(=O)NS(=O)(=O)c2c(I)cccc2OCC2CC2)c(=O)n1C [Compound 1.346]	very good herbidical action	very good herbicidal action
CCOc1nn(C(=O)NS(=O)(=O)c2c(I)cccc2OCC2CC2)c(=O)n1C [Compound 1.349]	very good herbidical action	very good herbicidal action
CCCOc1nn(C(=O)NS(=O)(=O)c2c(I)cccc2OCC2CC2)c(=O)n1C [Compound 1.350]	very good herbidical action	very good herbicidal action
COc1nn(C(=O)NS(=O)(=O)c2c(I)cccc2OCC2CC2)c(=O)n1C1CC1 [Compound 1.353]	very good herbidical action	very good herbicidal action
CCOc1nn(C(=O)NS(=O)(=O)c2c(I)cccc2OCC2CC2)c(=O)n1C1CC1 [Compound 1.356]	very good herbidical action	very good herbicidal action
CCCOc1nn(C(=O)NS(=O)(=O)c2c(I)cccc2OCC2CC2)c(=O)n1C1CC1 [Compound 1.359]	very good herbidical action	very good herbicidal action
COc1nn(C(=O)NS(=O)(=O)c2c(I)cccc2OC(F)(F)F)c(=O)n1C [Compound 1.440]	very good herbidical action	very good herbicidal action
CCOc1nn(C(=O)NS(=O)(=O)c2c(I)cccc2OC(F)(F)F)c(=O)n1C [Compound 1.443]	very good herbidical action	very good herbicidal action
CCCOc1nn(C(=O)NS(=O)(=O)c2c(I)cccc2OC(F)(F)F)c(=O)n1C [Compound 1.444]	very good herbidical action	very good herbicidal action
COc1nn(C(=O)NS(=O)(=O)c2c(I)cccc2OC(F)(F)F)c(=O)n1C1CC1 [Compound 1.447]	very good herbidical action	very good herbicidal action
CCOc1nn(C(=O)NS(=O)(=O)c2c(I)cccc2OC(F)(F)F)c(=O)n1C1CC1 [Compound 1.450]	very good herbidical action	very good herbicidal action
CCCOc1nn(C(=O)NS(=O)(=O)c2c(I)cccc2OC(F)(F)F)c(=O)n1C1CC1 [Compound 1.453]	very good herbidical action	very good herbicidal action
COc1nn(C(=O)NS(=O)(=O)c2c(I)cccc2OC(F)F)c(=O)n1C [Compound 1.460]	very good herbidical action	very good herbicidal action
CCOc1nn(C(=O)NS(=O)(=O)c2c(I)cccc2OC(F)F)c(=O)n1C [Compound 1.463]	very good herbidical action	very good herbicidal action
